Four compounds from patent publication US8642620B2, “Heteroaryl-substituted amides comprising an unsaturated or cyclic linker group, and their use as pharmaceuticals” (Sanofi, priority 2005, dated 2014) can be followed below.

pEC50: −log10 of the molar value. Counter-ions that a name gives are not always drawn. A value given as a limit tells only on which side of the number the result lay.

One series deals with eNOS promoter. Nature of the series: Activation of eNOS transcription (eNOS promoter-luciferase reporter gene assay). The series is classed as cell-based. The following applies: human endothelial cell line stably transfected with eNOS promoter-luciferase construct; 18 h incubation; EC50 determined graphically; read-out: EC50 values of transcription induction ratios (TIR). On the procedure:
Activation of eNOS transcription was measured as described in detail by Li et al., “Activation of protein kinase C alpha and/or epsilon enhances transcription of the human endothelial nitric oxide synthase gene”, Mol. Pharmacol. 53 (1998) 630. Briefly, a 3.5 kB long fragment 5′ of the starting codon of the eNOS gene was cloned, sequenced and cloned in firefly luciferase expression plasmids to monitor activation of the eNOS promoter by reporter gene activity. A human endothelial cell line stable transfected and expressing this promoter-reporter construct was used for compound testing. Cells were incubated for 18 h with the compounds.
All compounds were dissolved in sterile dimethyl sulfoxide (DMSO). A final concentration of 0.5% DMSO in complete medium was allowed. Induction of reporter gene expression in these cells was measured using a standard luciferase assay system (Promega, Cat. No. E150) according to the manufacturer's instructions. Luciferase induction in cells incubated with compounds were compared to those incubated with solvent alone. The ratio of both activities (transcription induction ratio, TIR) was plotted as a function of compound concentration. Typically, TIR values started at low concentrations at a ratio of 1, indicating no compound effect, and extended up to a maximum TIR value TIR(max) which indicates the increase of the eNOS transcription. EC50 values of transcription induction ratios as a function of compound concentration were determined graphically.
On the technique in general: A reporter such as luciferase makes a cellular process visible.

As to `CC1(C)NC(=O)N(C/C=C/c2ccc(-c3ccc(F)cc3)nc2)C1=O` [Example 11, 3-(3-(6-(4-Fluorophenyl)pyridin-3-yl)allyl)-5,5-dimethylimidazolidine-2,4-dione trifluoroacetic acid salt], the pEC50 in the series on eNOS promoter is 5.30 to 6.30.
Still for that read-out and setting: then `O=C1CCCC(=O)N1CC#Cc1ccc(-c2ccccc2F)nc1` [Example 2, 1-(3-(6-(2-Fluorophenyl)pyridin-3-yl)prop-2-ynyl)piperidine-2,6-dione trifluoroacetic acid salt], with 5.30 to 6.30.
Same read-out and setting: with `O=c1ccccn1C/C=C/c1nc(-c2ccc(F)cc2)cs1` [Example 3, 1-(3-(4-(4-Fluorophenyl)thiazol-2-yl)allyl)-1H-pyridin-2-one] the figure was 5.30 to 6.30.
What is called melting point is the temperature, or range, at which the solid turns liquid. Turning to `O=C1CNC(=O)N1C1CC1c1ccc(-c2ccc(F)c(Cl)c2)nc1` (racemic) [Example 21, 3-((E)-2-(6-(3-Chloro-4-fluorophenyl)pyridin-3-yl)cyclopropyl)imidazolidine-2,4-dione], the melting point is 172 °C. Moreover, the pEC50 in the series on eNOS promoter was above 6.30.
